This experiment deals with Plasmodium falciparum. Briefly: GSK_TCMDC: Inhibition of Plasmodium falciparum 3D7 in whole erythrocytes, using parasite LDH activity as an index of growth. The experiment is classed as functional, organism-based. The settings on record: Plasmodium falciparum, 3D7.
In turn, `OC(CNCc1ccccc1OCc1ccccc1)c1cccc(Cl)c1` (stereo not given) returned an XC50 of 0.219 µM.

Turning to `NCCCNc1nc(Nc2ccc(C(F)(F)F)cc2F)c2c(=O)[nH]ccc2n1`, the XC50 came to 1.05 µM.

For the molecule `CC(=O)c1ccc(O)c(CC(O)CO)c1` (stereo not given), the XC50 was 0.723 µM.

In turn, `O=C(OCC1CCN(Cc2ccccc2)C1)c1ccc(Cl)cc1` (stereo not given) returned an XC50 of 0.68 µM.

For `COc1cc(C(C)C)nc2ccc(NC(=O)c3ccc(C(=O)Nc4ccc5nc(C(C)C)cc(OC)c5c4)cc3)cc12`, the XC50 was found to be 0.579 µM.

As to `O=C(/C=C/c1ccc(Cl)c(Cl)c1)NCCCCCN1CCCN(C(=O)Nc2cc(Cl)nc(Cl)c2)CC1`, the XC50 is 0.786 µM.

For the molecule `CS(=O)(=O)Nc1ccc(OCCCCCCOc2ccc(NS(C)(=O)=O)cc2)cc1`, the XC50 was 0.493 µM.

As to `CNS(=O)(=O)c1ccc(NC(=O)c2cc(-c3cccnc3)nc3ccc(Br)cc23)cc1`, the XC50 was 0.907 µM.

Molecule `O=C(Nc1ccc2c(c1)CCN2C1CCN(Cc2ccc(O)cc2)C1)c1ccco1` (stereo not given) displayed an XC50 of 0.897 µM.

For `Cc1cccc2nc(-c3cccc(-c4ccc(CNCc5cnn(-c6ccccc6)n5)cc4)c3)[nH]c12`, the XC50 stood at 0.921 µM.

With `COC(=O)[C@@H](NC(=O)[C@H](Cc1ccc(OC)c(OC)c1)Nc1ccc(C#N)c2ccccc12)c1ccc(O)cc1`, the XC50 is 0.751 µM.

Molecule `CCn1c(Sc2ccc([N+](=O)[O-])c(C#N)c2)nnc1-c1ccc(Cl)cc1` gave an XC50 of 1 µM.

Consider `CCCCCN1C(=O)C(c2ccccc2)(c2ccccc2)N=C1N`, for which the XC50 stood at 0.793 µM.

`CN1CCC(c2cc3c(cc2Br)CCN3C(=O)Nc2ccc(-c3ccncc3)c(Cl)c2)CC1` gave an XC50 of 1.01 µM.

`CC1CN(Cc2ccccc2)CCN1c1ccc(NC(=O)c2cccs2)cc1` (stereo not given) showed an XC50 of 0.276 µM.

`O=S(=O)(Nc1ccc(CCN2CCC(N3CCCCC3)CC2)cc1)c1cccc(C(F)(F)F)c1` showed an XC50 of 0.702 µM.

On to `CCCCNC(=O)c1[nH]c2c(NC(=O)COc3ccccc3)cccc2c1-c1cccc(NC(=O)C(N)CO)c1` (stereo not given), for which the XC50 is 0.852 µM.

As for `CC(=O)Nc1ccc(CN(Cc2ccc(OC(C)(C)C)cc2)Cc2ccc3c(c2)OCCO3)cc1`, the XC50 worked out at 0.927 µM.

Consider `CCCCCN1CCCCC(NS(=O)(=O)c2ccc(C(=O)Nc3ccc(C(F)(F)F)cc3)cc2)C1` (stereo not given), for which the XC50 came to 0.768 µM.

In turn, `O=[N+]([O-])c1ccccc1C=NN=c1cc[nH]c2ccccc12` had an XC50 of 0.863 µM.

As for `CC1CN(S(=O)(=O)c2ccc(NC(=O)c3cc(-c4ccccc4O)n[nH]3)cc2)CC(C)O1` (stereo not given), the XC50 stood at 0.832 µM.

For `CC1(C)NC(N)=NC(=N)N1OCCSCCON1C(=N)N=C(N)NC1(C)C`, the XC50 was 0.0506 µM.

Molecule `Cc1cccc2nc(-c3ccc(-c4cccc(NC(=O)Nc5ccc(F)c(F)c5F)c4)cc3)[nH]c12` registered an XC50 of 0.338 µM.

Turning to `CC(=O)Nc1ccc(CN(Cc2ccc(C)cc2)Cc2cccc(Oc3ccccc3)c2)cc1`, the XC50 amounted to 1.05 µM.

As for `N=C(N)Nc1ccc(OCCCCCOc2ccc(NC(=N)N)c(Cl)c2)cc1Cl`, the XC50 turned out to be 0.857 µM.

With `CC1Cc2ccccc2N1CC(=O)Nc1cc(C(F)(F)F)ccc1-n1cncn1` (stereo not given), the XC50 is 0.321 µM.

Take `O=C(/C=C/c1ccc(Cl)c(Cl)c1)NCCCCCN1CCC(CCNC(=O)/C=C/c2ccc(Cl)c(Cl)c2)CC1`: the XC50 amounted to 0.561 µM.

Molecule `COc1cc2c(c(Cl)c1OC)CCN(Cc1ccccc1)CC2c1ccc(NC(=O)C(F)(F)F)cc1` (stereo not given) registered an XC50 of 0.924 µM.

Consider `CCCc1c(C(=O)Nc2ccc3c(c2)CCN(C2CCC2)CC3)cnn1-c1ccc(Cl)cc1`, for which the XC50 was 0.858 µM.

For the molecule `CN1CCCC1CCOc1ccc2c(c1)N(C(=O)Nc1cc(Br)cc(C(F)(F)F)c1)CC2` (stereo not given), the XC50 was found to be 0.247 µM.

`c1ccc(CN2CCC(NCc3ccccc3-c3ccc(CNC4CCCC4)cc3)CC2)cc1` had an XC50 of 0.912 µM.

`CN1CCCC1CCNc1ncc2c(-c3ccc(NC(=O)Nc4cc(C(F)(F)F)ccc4F)cc3)nn(C)c2n1` (stereo not given) showed an XC50 of 0.344 µM.

Consider `Cc1cc(CN2CC[C@H](NC(=O)c3ccc(Cl)c(Cl)c3)C2)ccc1OC1CCN(Cc2ccccc2)CC1`, for which the XC50 is 0.906 µM.

On to `COc1ccc(Nc2nccc(NCC(O)c3cccc(C(F)(F)F)c3)n2)cc1` (stereo not given), for which the XC50 was 0.886 µM.

`Cc1ccc(C2(CN3CCC(NC(=O)c4n[nH]cc4Cl)CC3)CCCCC2)cc1` yielded an XC50 of 0.321 µM.

For `COc1ccc(-c2cnc3ccc(NCc4ccc(S(N)(=O)=O)cc4)nn23)cn1`, the XC50 was 0.867 µM.

Regarding `COc1ccc(NC(=O)Nc2ccc(-c3ccncc3)c(Cl)c2)cc1N1CCN(C)CC1`, the XC50 was found to be 0.755 µM.

`COc1ccc(CNC2CCN(C)CC2)cc1-c1ccc(S(=O)(=O)NCCc2ccccn2)cc1` displayed an XC50 of 1.09 µM.

In the case of `NC(=O)c1cccc(C(=O)Nc2ccc(-c3cccc(-c4nc5cc(F)ccc5[nH]4)c3)cc2)c1`, the XC50 came out at 0.865 µM.

Consider `Cc1noc(C)c1-c1cccc(CNCc2cccc(-c3ccc(-c4nc5cccc(C)c5[nH]4)s3)c2)c1`, for which the XC50 was determined as 0.211 µM.

With `CCCC(CC)n1ccc2c3c(N)nc(N)nc3ccc21` (stereo not given), the XC50 turned out to be 0.00592 µM.

In the case of `O=C(/C=C/c1ccc(C(F)(F)F)cc1)NCCCCCN1CCCN(C(=O)Nc2ccc(F)c(Cl)c2)CC1`, the XC50 was determined as 0.368 µM.

Take `Cc1cccc2nc(-c3ccc(-c4ccc(NC(=O)NCc5cccc(F)c5)cc4)cc3)[nH]c12`: the XC50 was determined as 1.3 µM.

`Cc1ccc(CC(C)NCC(O)c2cccc(Br)c2)cc1` (stereo not given) showed an XC50 of 0.802 µM.

Take `Cc1ccc(F)cc1S(=O)(=O)Nc1ccc(CCN2CCC(N3CCCCC3)CC2)cc1`: the XC50 was 0.719 µM.

As for `c1ccc(COc2ccccc2COc2ccccc2-c2ccc3cccnc3n2)cc1`, the XC50 amounted to 0.921 µM.

Turning to `CCCC/C=C(\Cl)c1ccc(O)c2c1C[C@H]1C[C@H]3[C@H](N(C)C)C(O)=C(C(N)=O)C(=O)[C@@]3(O)C(O)=C1C2=O`, the XC50 came to 1.09 µM.

In turn, `O=C(Nc1ccc(Cl)cc1)c1cccc(S(=O)(=O)NC2CCN(CC3CCCCC3)CC2)c1` returned an XC50 of 0.722 µM.

On to `CN1CCN(CCCN(Cc2ccc(-c3cccc(CNC4CCCC4)c3)cc2)C(=O)/C=C/c2ccccc2)CC1`, for which the XC50 stood at 1.33 µM.

`CC(C)(C)c1ccc2[nH]c(-c3ccc(/C=C/C(=O)NCc4ccc(Cl)c(Cl)c4)cc3)nc2c1` displayed an XC50 of 0.0354 µM.

Turning to `Cc1cccc2nc(-c3ccc(-c4ccc(CNCc5cnn(-c6ccccc6)n5)cc4)cc3)[nH]c12`, the XC50 was 0.428 µM.

`Cc1ccc(C)c(CN2CCC(CNC(=O)c3cc4ccc5cccnc5c4[nH]3)CC2)c1` displayed an XC50 of 0.993 µM.

`O=C(Cc1ccc(Cl)cc1)NC1CCN(c2ccnc3cc(Cl)ccc23)C1` (stereo not given) returned an XC50 of 0.226 µM.

In the case of `CC1CC(NCCCNc2cc(=O)c3ccccc3[nH]2)c2cc(Cl)c(Cl)c(Cl)c21` (stereo not given), the XC50 came to 0.724 µM.

In turn, `COc1ccc(-c2nc(NC(=O)CSc3ccccc3)sc2C)cc1` had an XC50 of 0.764 µM.

On to `c1cc(-c2ccc(CNCCCN3CCOCC3)cc2)cc(-c2nc3ccccc3[nH]2)c1`, for which the XC50 turned out to be 0.207 µM.

`CCCCN(C)CC#Cc1ccc(-c2ccc3[nH]c(C)c(Br)c(=O)c3c2)cn1` registered an XC50 of 0.647 µM.

In turn, `c1cc(CN2CCc3ccccc3CC2)cc(-c2c[nH]c3nc(NC4CCCC4)ncc23)c1` registered an XC50 of 0.8 µM.

As for `CC(C)CC(NC(=O)c1ccc(F)cc1)C(=O)N[C@H](/C=N/N1CCNC1=O)CC(C)C` (stereo not given in full), the XC50 is 1.03 µM.

The molecule `Clc1ccc(-c2cnc3ccc(NCc4ccncc4)nn23)cc1` had an XC50 of 0.891 µM.

`c1ccc(CN2CCC(NCc3cccc(-c4cncc5ccccc45)c3)CC2)cc1`: the XC50 turned out to be 1.36 µM.

In turn, `CN1CCc2ccc(NC(=O)Nc3cccc(C(=O)c4ccccc4)c3)cc2C1` yielded an XC50 of 0.917 µM.

`N#CC1(c2ccccc2)CCN(c2nc(NCCCN3CCCC3=O)nc(N3CCCC4CCCCC43)n2)CC1` (stereo not given) displayed an XC50 of 0.864 µM.

Regarding `CCSc1ccccc1CON1C(=N)N=C(N)NC1(C)C`, the XC50 is 0.0032 µM.

`CCCN1CCN(CCCNc2c3ccccc3nc3ccccc23)CC1` gave an XC50 of 0.547 µM.

`O=C(NC1CC1)c1ccc(Nc2nccc(-c3c(-c4cccc(NC(=O)c5c(F)cccc5F)c4)nn4ccccc34)n2)cc1` came in with an XC50 of 0.411 µM.

With `COc1ccc2nccc([C@@H](O)CN3CCC(NC(=O)c4cccc(-c5cc(C)no5)c4)CC3)c2c1`, the XC50 is 0.345 µM.

Take `O=C(/C=C/c1ccc(Cl)c(Cl)c1)NC1C2CCC1CC(CN1CCC(c3c[nH]c4ccccc34)CC1)C2` (stereo not given): the XC50 is 0.203 µM.

As to `CC(C)CCN1CCCN(Cc2ccc(C(=O)Nc3ccc(F)c(F)c3)cc2)CC1`, the XC50 turned out to be 0.944 µM.

The molecule `CCCN(CCC)C(=O)c1cc(C(=O)N[C@@H](Cc2ccccc2)[C@H](O)CNCc2cccc(OC)c2)cc(N2CCCCS2(=O)=O)c1` had an XC50 of 0.549 µM.

`Cc1ccc(Nc2nccc(Nc3ccc4c(c3)nc(Nc3cc(C(C)(C)C)on3)n4C)n2)cc1S(C)(=O)=O` gave an XC50 of 0.599 µM.

The molecule `N#Cc1ccc(CN2CCC(Oc3ccc(NC(=O)c4cccs4)cc3)CC2)cc1` came in with an XC50 of 1.03 µM.

The molecule `O=C(NC1CC1)c1ccc(N2CCOc3ccc(Cl)cc32)s1` gave an XC50 of 0.803 µM.

Consider `Cc1cnc(C(=O)Nc2cccc(-c3csc(-c4nc5ccccc5[nH]4)c3)c2)cn1`, for which the XC50 worked out at 0.275 µM.

In turn, `COc1ccccc1Cc1nc2ccccc2nc1SCC(=O)Nc1cccc(C(F)(F)F)c1` registered an XC50 of 0.499 µM.

`Cc1ccc2[nH]c(-c3ccccc3Nc3ccnc4cc(-c5nccs5)ccc34)nc2c1` had an XC50 of 0.19 µM.

Turning to `CCCC1(NC[C@@H](O)[C@H](Cc2ccccc2)NC(=O)c2cc(NCC)cc(N3CCCCS3(=O)=O)c2)CC1`, the XC50 amounted to 1.08 µM.

The molecule `CC(=O)N(C)c1cccc(CNc2cc(C)nc(Nc3ccc(C)cc3)n2)c1` had an XC50 of 0.996 µM.

`O=C(Nc1ccc(Cl)cc1F)N[C@H]1CCN(CCCCCNC(=O)C2CC2c2ccc(Cl)c(Cl)c2)C1` (stereo not given in full) displayed an XC50 of 1.09 µM.

Turning to `Cc1cc(CN2CCCC(OC(c3ccc(F)cc3)c3ccc(F)cc3)C2)ccc1O` (stereo not given), the XC50 was 0.883 µM.

Molecule `O=C(c1ccccc1)C1CC1CN1CC=C(c2c[nH]c3ccccc23)CC1` (stereo not given) showed an XC50 of 0.525 µM.

In the case of `O=C(/C=C/c1ccc([N+](=O)[O-])cc1)N1CCC(NS(=O)(=O)c2cccc(C(F)(F)F)c2)CC1`, the XC50 was found to be 0.847 µM.

On to `Cn1nc2ccc3ccccc3c2nc1=N`, for which the XC50 stood at 0.773 µM.

The molecule `Cc1cccc(C(=O)Nc2ccnc(N3CCC(N(C)Cc4cccc(C#N)c4)CC3)c2)c1` yielded an XC50 of 1.1 µM.

In the case of `COc1ccccc1-n1c(SCC(=O)Nc2ccccc2F)nc2cccnc21`, the XC50 came to 0.417 µM.

For the origin of these results see ChEMBL document CHEMBL1157539, “Thousands of chemical starting points for antimalarial lead identification” (Nature, 2010).
